Data taken from ChEMBL document CHEMBL3137547, “Open Source Malaria Deposition 2. http://malaria.ourexperiment.org”.

test system: Plasmodium falciparum; experiment: OSM: Erythrocyte assay. NF54 with 3H-Hypoxanthine at 72hr time point.; format: functional, organism-based

SMILES | EC50 [nM]
Cc1nn(-c2ccc(F)cc2)c(C)c1-c1nnc2cncc(C(=O)Nc3ccnc(C(F)(F)F)c3)n12 | 10000
Fc1ccc(C2(C(Oc3cncc4nnc(-c5ccc(OC(F)F)cc5)n34)C(F)(F)F)CC2)cc1F (configuration not stated) | 10000
Cn1cc2ccc(Oc3cncc4nnc(-c5ccc(OC(F)F)cc5)n34)cc2n1 | 6200
OC(COc1cncc2nnc(-c3ccc(OC(F)F)cc3)n12)c1ccc(F)c(F)c1 (configuration not stated) | 124
[O-][n+]1cc(OCCc2ccc(F)c(F)c2)n2c(-c3ccc(OC(F)F)cc3)nnc2c1 | 4010
Fc1ccc(CCOc2cnc(Cl)c3nnc(-c4ccc(OC(F)F)cc4)n23)cc1F | 160
OCCc1cncc2nnc(-c3ccc(OC(F)F)cc3)n12 | 10000
OCCC1CNCc2nnc(-c3ccc(OC(F)F)cc3)n21 (configuration not stated) | 8370
Fc1ccc(N2CC(Oc3cncc4nnc(-c5ccc(OC(F)F)cc5)n34)C2)cc1F | 430
Fc1ccc(CCOc2cncc3nnc(C4CCOCC4)n23)cc1F | 10000
FC(F)Oc1ccc(-c2nnc3n2CCNC3)cc1 | 10000
CC(=O)N1CCC(c2nnc3cncc(OCCc4ccc(F)c(F)c4)n23)CC1 | 10000
NCC(=O)N1CCn2c(nnc2-c2ccc(OC(F)F)cc2)C1 | 10000
O=C(NCC1CCOCC1)c1cncc2nnc(-c3ccc(OC(F)F)cc3)n12 | 10000
Fc1ccc(CCOc2cncc3nnc(Nc4ccc(F)c(F)c4)n23)cc1F | 850
Fc1ccc(OC2CN(c3cncc4nnc(-c5ccc(OC(F)F)cc5)n34)C2)cc1F | 4960
Fc1ccc(CCOc2cncc3nnc(N4CCCCC4)n23)cc1F | 2630
O=C(NCCN1CCOCC1)c1cncc2nnc(-c3ccc(OC(F)F)cc3)n12 | 10000
O=c1[nH]cc(OCCc2ccc(F)c(F)c2)n2c(-c3ccc(OC(F)F)cc3)nnc12 | 4130
Fc1ccc(CCOc2cncc3nnc(N4Cc5ccccc5C4)n23)cc1F | 470
CCN(CC)c1ncc(OCCc2ccc(F)c(F)c2)n2c(-c3ccc(OC(F)F)cc3)nnc12 | 6860
O=S(=O)(Cc1ccc(C(F)(F)F)cc1)Nc1cncc2nnc(-c3ccc(OC(F)F)cc3)n12 | 10000
FC(F)Oc1ccc(-c2nnc3cncc(CCN4CCOCC4)n23)cc1 | 10000

SMILES | EC50 [nM]
FC(F)Oc1ccc(-c2nnc3n2C(CCCc2ccccc2)CNC3)cc1 (configuration not stated) | 8760
Nc1ncc(OCCc2ccc(F)c(F)c2)n2c(-c3ccc(OC(F)F)cc3)nnc12 | 10000
Fc1ccc(COCc2cncc3nnc(-c4ccc(OC(F)F)cc4)n23)cc1F | 360
Cc1ncc(OCCc2ccc(F)c(F)c2)n2c(-c3ccc(OC(F)F)cc3)nnc12 | 6920
CO[C@@H](COc1cncc2nnc(-c3ccc(C#N)cc3)n12)c1ccc(F)c(F)c1 | 40
Fc1ccc(CCOc2cncc3ncc(-c4ccc(Cl)cc4)n23)cc1F | 110
Fc1ccc(CCCc2cncc3nnc(-c4ccc(OC(F)F)cc4)n23)cc1F | 320
Fc1ccc2c(c1)CCN2c1nnc2cncc(OCCc3ccc(F)c(F)c3)n12 | 2050
Fc1ccc(CCOc2cncc3cnc(-c4ccc(Cl)cc4)n23)cc1F | 830
CN(C)[C@@H](COc1cncc2nnc(-c3ccc(OC(F)F)cc3)n12)c1ccc(F)c(F)c1 | 44.1
Fc1ccc(C2(COc3cncc4nnc(-c5ccc(OC(F)F)cc5)n34)COC2)cc1F | 483
N#Cc1ccc(-c2nnc3cncc(OCC(OC(F)F)c4ccc(F)c(F)c4)n23)cc1 (configuration not stated) | 16.7
FC(F)Oc1ccc(-c2nnc3cncc(OCC(F)(F)F)n23)cc1 | 10000
CN[C@@H](COc1cncc2nnc(-c3ccc(OC(F)F)cc3)n12)c1ccc(F)c(F)c1 | 10000
FC(F)Oc1ccc(-c2nnc3cncc(Oc4ccc(C(F)(F)F)cc4)n23)cc1 | 383
FC(F)Oc1ccc(-c2nnc3cncc(Oc4ccc(Cl)c(Cl)c4)n23)cc1 | 455
FC(F)Oc1ccc(-c2nnc3cncc(Nc4ccc(Cl)c(Cl)c4)n23)cc1 | 9640
Fc1ccc(CCOc2cncc3nnc(-c4ccc(C(F)(F)F)nc4)n23)cc1F | 262
Fc1ccc(CCOc2cn3c(-c4ccc(OC(F)F)cc4)nnc3cn2)cc1F | 33.8
Fc1ccc(COc2cn3c(-c4ccc(OC(F)F)cc4)nnc3cn2)cc1F | 521
OCC(COc1cncc2nnc(-c3ccc(OC(F)F)cc3)n12)c1ccc(F)c(F)c1 (configuration not stated) | 24.3
Fc1ccc(CNc2cn3c(-c4ccc(OC(F)F)cc4)nnc3cn2)cc1F | 10000
Fc1ccc(C(COc2cncc3nnc(-c4ccc(OC(F)F)cc4)n23)N2CCOCC2)cc1F (configuration not stated) | 613

SMILES | EC50 [nM]
CC(C)(C)c1ccc(Oc2cncc3nnc(-c4ccc(OC(F)F)cc4)n23)cc1 | 738
FC(F)Oc1ccc(-c2nnc3cncc(Oc4ccc5c(c4)CCCC5)n23)cc1 | 2580
FC(F)Oc1ccc(-c2nnc3cncc(Oc4ccc(Cl)c(C(F)(F)F)c4)n23)cc1 | 597
N[C@@H](COc1cncc2nnc(-c3ccc(OC(F)F)cc3)n12)c1ccc(F)c(F)c1 | 278
OC[C@H](Nc1cncc2nnc(-c3ccc(OC(F)F)cc3)n12)c1ccc(F)c(F)c1 | 570
Fc1ccc(-c2cnn(-c3cncc4nnc(-c5ccc(OC(F)F)cc5)n34)c2)cc1F | 6720
Fc1ccc(Nc2cn3c(-c4ccc(OC(F)F)cc4)nnc3cn2)cc1F | 10000
Fc1ccc(Cc2nccn2-c2cncc3nnc(-c4ccc(OC(F)F)cc4)n23)cc1F | 10000
Cc1nn(-c2ccc(F)cc2)c(C)c1-c1nnc2cncc(OCC(F)(F)F)n12 | 10000
FC(F)Oc1ccc(-c2nnc3cncc(Oc4ccc(S(F)(F)(F)(F)F)cc4)n23)cc1 | 263
Fc1ccc(Oc2cn3c(-c4ccc(OC(F)F)cc4)nnc3cn2)cc1F | 3450
Fc1ccc(CCNc2cn3c(-c4ccc(OC(F)F)cc4)nnc3cn2)cc1 | 10000
Cc1nn(-c2ccc(F)cc2)c(C)c1-c1nnc2cncc(Oc3ccc(Cl)c(Cl)c3)n12 | 10000
Fc1ccc([C@H]2[C@@H](Oc3cncc4nnc(-c5ccc(OC(F)F)cc5)n34)CN2C2CC2)cc1F | 610
O=C1[C@H](Oc2cncc3nnc(-c4ccc(OC(F)F)cc4)n23)[C@H](c2ccc(F)c(F)c2)N1C1CC1 | 1120
Cn1ccc2cc(Oc3cncc4nnc(-c5ccc(OC(F)F)cc5)n34)ccc21 | 1980
O=C1[C@@H](Oc2cn3c(-c4ccc(OC(F)F)cc4)nnc3cn2)[C@@H](c2ccc(F)c(F)c2)N1C1CC1 | 10000
FC(F)Oc1ccc(-c2nnc3cncc(Oc4ccc5ccc(C(F)(F)F)nc5c4)n23)cc1 | 1630
Cc1noc2cc(Oc3cncc4nnc(-c5ccc(OC(F)F)cc5)n34)ccc12 | 1930
CC1=CC(C)(C)Oc2cc(Oc3cncc4nnc(-c5ccc(OC(F)F)cc5)n34)ccc21 | 1820
Cn1ncc2ccc(Oc3cncc4nnc(-c5ccc(OC(F)F)cc5)n34)cc21 | 10000

Next, values leading:

EC50 [nM] | SMILES
547 | O=C(NC1CCc2cc(Cl)ccc21)c1cncc2nnc(-c3ccc(OC(F)F)cc3)n12 (configuration not stated)
2000 | FC(F)Oc1ccc(-c2nnc3cncc(N4CCC(c5ccccc5)C4)n23)cc1 (configuration not stated)
250 | O=C(NCc1cccc(Cl)c1)c1cncc2nnc(-c3ccc(OC(F)F)cc3)n12
10000 | O=C(c1cncc2nnc(-c3ccc(OC(F)F)cc3)n12)N1Cc2ccccc2C1
1340 | O=C(NCc1ccc(Cl)cc1)c1cncc2nnc(-c3ccc(OC(F)F)cc3)n12
380 | O=C(NCc1ccccc1Cl)c1cncc2nnc(-c3ccc(OC(F)F)cc3)n12
10000 | O=C(c1cncc2nnc(-c3ccc(OC(F)F)cc3)n12)N1CCN(c2ccccn2)CC1
10000 | O=C(c1cncc2nnc(-c3ccc(OC(F)F)cc3)n12)N1CCOCC1
1600 | C[C@H](NC(=O)c1cncc2nnc(-c3ccc(OC(F)F)cc3)n12)c1ccccc1
10000 | O=C(c1cncc2nnc(-c3ccc(OC(F)F)cc3)n12)N1CCCC1
10000 | CS(=O)(=O)N1CCN(C(=O)c2cncc3nnc(-c4ccc(OC(F)F)cc4)n23)CC1
1360 | C[C@@H](NC(=O)c1cncc2nnc(-c3ccc(OC(F)F)cc3)n12)c1ccccc1
10000 | O=C(Nc1ccccn1)c1cncc2nnc(-c3ccc(OC(F)F)cc3)n12
3170 | O=C(NCCc1ccccc1)c1cncc2nnc(-c3ccc(OC(F)F)cc3)n12
3560 | O=C(c1cncc2nnc(-c3ccc(OC(F)F)cc3)n12)N1CCCC1c1ccccc1 (configuration not stated)
1060 | CN(Cc1cccc(Cl)c1)C(=O)c1cncc2nnc(-c3ccc(OC(F)F)cc3)n12
280 | FC(F)Oc1ccc(-c2nnc3cncc(CCCc4ccccc4)n23)cc1
10000 | FC(F)Oc1ccc(-c2nnc3cncc(CCN4Cc5ccccc5C4)n23)cc1

EC50 [nM] | SMILES
10000 | FC(F)Oc1ccc(-c2nnc3cncc(N4CC(c5ccccc5)C4)n23)cc1
180 | O=C(Nc1cccc(Cl)c1)c1cncc2nnc(-c3ccc(OC(F)F)cc3)n12
280 | O=C(NCc1ccc(F)c(F)c1)c1cncc2nnc(-c3ccc(OC(F)F)cc3)n12
10000 | O=C(NCc1cncc2nnc(-c3ccc(OC(F)F)cc3)n12)c1cccc(Cl)c1
2960 | FC(F)Oc1ccc(-c2nnc3cncc(Oc4ccc(Cl)cc4)n23)cc1
110 | FC(F)Oc1ccc(-c2nnc3cncc(CN4Cc5ccccc5C4)n23)cc1
3740 | O=C(Nc1ccc(F)cc1)c1cncc2nnc(-c3ccc(OC(F)F)cc3)n12
650 | O=C(Nc1ccc(F)c(F)c1)c1cncc2nnc(-c3ccc(OC(F)F)cc3)n12
5000 | O=C(Nc1ccc(Cl)cc1)c1cncc2nnc(-c3ccc(OC(F)F)cc3)n12
115 | FC(F)Oc1ccc(-c2nnc3cncc(Oc4ccc5ccccc5c4)n23)cc1
191 | O=C(Nc1ccc(F)c(Cl)c1)c1cncc2nnc(-c3ccc(OC(F)F)cc3)n12
10000 | O=C(c1cncc2nnc(-c3ccc(OC(F)F)cc3)n12)N1CCc2cc(F)ccc21
3070 | FC(F)Oc1ccc(-c2nnc3cncc(Oc4cccc(Cl)c4)n23)cc1
140 | O=C(Nc1ccnc(C(F)(F)F)c1)c1cncc2nnc(-c3ccc(OC(F)F)cc3)n12
5580 | O=C(Nc1ccc(F)cc1Cl)c1cncc2nnc(-c3ccc(OC(F)F)cc3)n12
332 | O=C(NCc1cc(Cl)ccc1Cl)c1cncc2nnc(-c3ccc(OC(F)F)cc3)n12
309 | O=C(NCc1cccc(C(F)(F)F)c1Cl)c1cncc2nnc(-c3ccc(OC(F)F)cc3)n12
